Data on eight molecules can be found in ChEMBL document CHEMBL1159188, “Identification of novel (isoxazole)methylene-1-azabicyclic compounds with high affinity for the central nicotinic cholinergic receptor” (Bioorg Med Chem Lett, 1997).

The target of test [1] is Muscarinic acetylcholine receptor. The experiment in a line: Inhibitory concentration required for in vitro binding affinity to cholinergic central muscarinic receptor on rat brain cortex by using [3H]OXO-M.
Test [2] deals with T1, Neuronal acetylcholine receptor; alpha3/beta2 (Homo sapiens, UniProt P17787+P32297). The test is described as follows: Inhibitory concentration required for in vitro binding affinity to Nicotinic acetylcholine receptor alpha3-beta2 expressed on cell line sf 9 by using [3H]-MCC. Also on record: species or system Rattus norvegicus.
T1 sequence (P17787 whole entry): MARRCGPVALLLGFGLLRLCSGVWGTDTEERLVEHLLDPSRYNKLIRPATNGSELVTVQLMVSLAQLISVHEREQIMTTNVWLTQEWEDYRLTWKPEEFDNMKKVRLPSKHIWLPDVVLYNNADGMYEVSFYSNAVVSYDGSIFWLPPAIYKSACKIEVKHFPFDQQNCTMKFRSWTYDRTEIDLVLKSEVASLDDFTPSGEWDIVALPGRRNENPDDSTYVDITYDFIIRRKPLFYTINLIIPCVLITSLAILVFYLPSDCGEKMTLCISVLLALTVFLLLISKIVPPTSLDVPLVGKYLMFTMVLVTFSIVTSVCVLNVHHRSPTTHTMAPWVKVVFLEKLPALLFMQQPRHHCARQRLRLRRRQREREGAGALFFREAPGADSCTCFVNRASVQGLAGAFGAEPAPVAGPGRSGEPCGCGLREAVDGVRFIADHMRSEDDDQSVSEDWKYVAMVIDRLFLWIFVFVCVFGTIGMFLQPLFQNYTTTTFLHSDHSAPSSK
T1 sequence (P32297 whole entry): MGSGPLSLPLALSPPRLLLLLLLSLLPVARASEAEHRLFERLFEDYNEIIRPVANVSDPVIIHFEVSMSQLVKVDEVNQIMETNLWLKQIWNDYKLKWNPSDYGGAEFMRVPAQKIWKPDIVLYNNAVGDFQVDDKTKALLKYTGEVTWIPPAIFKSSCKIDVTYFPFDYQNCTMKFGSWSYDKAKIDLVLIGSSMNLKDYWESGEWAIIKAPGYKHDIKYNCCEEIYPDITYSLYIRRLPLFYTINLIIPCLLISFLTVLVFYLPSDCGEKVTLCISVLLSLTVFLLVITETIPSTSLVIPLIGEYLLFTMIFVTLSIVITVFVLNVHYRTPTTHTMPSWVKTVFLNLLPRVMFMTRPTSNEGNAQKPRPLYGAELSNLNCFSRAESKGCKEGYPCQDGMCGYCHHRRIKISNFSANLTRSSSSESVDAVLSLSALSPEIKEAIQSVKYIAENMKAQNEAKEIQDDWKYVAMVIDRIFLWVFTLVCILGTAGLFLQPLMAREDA
Test [3] concerns the target Neuronal acetylcholine receptor. The test is described as follows: Inhibitory concentration required for in vitro binding affinity to cholinergic central Nicotinic acetylcholine receptor on rat brain cortex by using [3H]MCC.
Test [4] is described as follows: Inhibitory concentration required for in vitro binding affinity to Nicotinic acetylcholine receptor alpha4-beta2 expressed on cell line sf 21 by using [3H]-MCC.
Test [5] is filed under the species Xenopus sp. The experiment in a line: Compound was tested for inducing stimulation of current response in Xenopus oocytes (alpha3-beta2) at 30 uM. Type of test: functional, frog.
The test system of test [6] is Rattus norvegicus. The experiment in a line: Compound was tested in vivo against effective nicotinic agonistic activity in rat. Type of test: functional.
Test [7] is filed under the species Rattus norvegicus. The experiment in a line: The compound was tested for inducing [3H]dopamine release from striatal slices at 1 uM nicotine. Type of test: functional.
The species named for test [8] is Rattus norvegicus. The test is described as follows: The compound was tested for inducing [3H]dopamine release from striatal slices at 10 uM nicotine. Type of test: functional.
Test [9] has as its system Rattus norvegicus. The test is described as follows: Compound was tested in vivo against effective nicotinic agonistic activity in rat when administered s.c. It is filed as functional. The conditions noted are these: sc.
The target in test [10] is T1, Neuronal acetylcholine receptor; alpha3/beta2. The experiment in a line: Inhibitory concentration required for in vitro binding affinity to Nicotinic acetylcholine receptor alpha3-beta2 expressed on cell line Sf 9 by using [3H]MCC. Also on record: species or system Rattus norvegicus.
The species entered for test [11] is Rattus norvegicus. The experiment in a line: Compound was tested for inducing [3H]-dopamine release from striatal slices at 10 uM nicotine. It is filed as functional.
Test [12] is filed under the species Xenopus sp. The experiment in a line: Compound was tested for inducing stimulation of current response in Xenopus oocytes (alpha4-beta2) at 1 uM. Type of test: functional, frog.
Test [13] is described as follows: Inhibitory concentration required for in vitro binding affinity to Nicotinic acetylcholine receptor alpha4-beta2 expressed on cell line Sf 21 by using [3H]MCC.
The species entered for test [14] is Rattus norvegicus. The test is described as follows: Compound was tested for inducing [3H]dopamine release from striatal slices at 1 uM nicotine. Type of test: functional.
Test [15] has as its system Mus musculus. The test is described as follows: Compound was tested in vivo for exploratory locomotor activity in mice after subcutaneous administration. The conditions noted are these: sc. Type of test: functional.
Test [16] concerns Mus musculus. The test is described as follows: Compound was tested in vivo for exploratory locomotor activity in mice after peroral administration. Type of test: functional. To be noted: po.
Test [17] is described as follows: Inhibitory concentration required for in vitro binding affinity to Nicotinic acetylcholine receptor alpha4-beta2 expressed on cell line sf 21 by using [3H]MCC.
Test [18] deals with Rattus norvegicus. The test is described as follows: The compound was tested in vivo against effective nicotinic agonistic activity in rat. Type of test: functional.
The subject of test [19] is Rattus norvegicus. The experiment in a line: The compound was tested in vivo against effective nicotinic agonistic activity in rat when administered s.c. Type of test: functional. The conditions noted are these: sc.

`Cc1cc(C=C2CN3CCCC2C3)on1` (stereo not drawn): the IC50 in test [1] was 1700 nM; in [2], 117 nM; in test [3], 85 nM; in [4], 41 nM.
As to `Cc1cc(/C=C2/CN3CCC2C3)on1` (stereo not drawn), the IC50 in [1] is 2800 nM; in test [2], 14 nM; in [3] it was 26 nM; in test [4], 6.5 nM. This molecule also displayed a Response in test [5] of 38%. Further, the Activity in test [6] was 62%; in [7], 17%; in [8], 46%. The molecule also yielded an ED50 in test [9] of 0.2 mg/kg.
As to `Cc1cc(/C=C2\CN3CCC2C3)on1` (stereo not drawn), the IC50 was 1200 nM in test [1], 15 nM in test [10], 11 nM in [13] and 23 nM in test [3]. Moreover, the figures for the Activity in test [11], in [6] and in test [14] were 80%, 63% and 38%, respectively. For the same molecule, the values for the Response in [12] and in test [5] were 171% and 51%, respectively. Moreover, the ED50 in [9] was 0.5 mg/kg; in test [15] it was 4.1 mg/kg; in [16] it was 2 mg/kg.
Regarding `Cc1cc(/C=C2/CN3CCC2CC3)on1`, the 50% inhibitory concentration (IC50) in test [1] is 1500 nM; in [2], 854 nM; in test [17], 288 nM.
For the molecule `Cc1cc(/C=C2\CN3CCC2CC3)on1`, the IC50 in test [1] was determined as 1000 nM; in [2], 1.9 nM; in [3] it was 3.4 nM; in [4], 1.4 nM. Further, the Response in test [12] is given as 300%; in test [5], 135%. The Activity was 60% in test [18], 51% in test [7] and 68% in test [8]. Further, the ED50 was determined as 0.1 mg/kg in [19], 0.4 mg/kg in [15] and 2.4 mg/kg in test [16].
Take `Cc1cc(/C=C2\CN3CCCC2C3)on1` (stereo not drawn): the IC50 in [1] stood at 950 nM; in test [2], 217 nM; in test [3] it was 170 nM; in test [4], 26 nM.
With `Cc1cc([C@@H]2CCCN2C)on1` [ABT-418], the results for the Response in test [12] and in test [5] were 24% and 40%, respectively. In addition, the Activity in [6] amounted to 72%; in test [7] it was 5%; in test [8], 66%. In addition, the figures for the 50% effective dose (ED50) in [9], in test [15] and in test [16] were 0.2 mg/kg, 10 mg/kg and 72 mg/kg, respectively. Besides, the IC50 in test [2] came to 62 nM; in test [4], 37 nM.
On to `CN1CCC[C@H]1c1cccnc1` [NICOTINE], for which the Response in [12] and in test [5] was 100% in each case. In addition, the Activity is listed as 96% in test [18], 100% in test [7] and 180% in test [8]. In addition, the ED50 in test [19] is 0.04 mg/kg; in test [15] it was 0.3 mg/kg; in [16], above 9 mg/kg. Also, in [4], the IC50 was 4.2 nM.

In general, IC50 refers to the concentration that inhibits the measured activity by half. A higher IC50 goes with weaker potency in that assay. As a reminder, the ED50 is the midpoint of the dose-response relation. High values mean weaker potency, low ones greater potency.
